US9815850B2, “Compounds, compositions and methods” (Denali Therapeutics Inc., priority 2016, dated 2017)

What follows are compounds tested against GST-hRIPK1 (8-327) (Homo sapiens (Human), UniProt Q13546) (assay: Fluorescent Polarization Binding (FP Binding) assay). Conditions: 10 nM GST-hRIPK1 (8-327), 5 nM fluorescent labeled ligand; read-out: FP IC50.
Method: Fluorescent Polarization Binding (FP Binding) assay (Berger S. B. et al. […] Maki J. L. et al. […] Test Compounds were serially diluted in DMSO at 100 fold final concentrations in the assay (1% DMSO final). […] For negative control the enzyme addition was replaced by assay buffer only. After addition of 5 μL of fluorescent labeled ligand at twice the final concentrations in assay buffer, the plate was incubated at RT for 30 min.

GST-hRIPK1 (8-327), sequence (Q13546 8-327): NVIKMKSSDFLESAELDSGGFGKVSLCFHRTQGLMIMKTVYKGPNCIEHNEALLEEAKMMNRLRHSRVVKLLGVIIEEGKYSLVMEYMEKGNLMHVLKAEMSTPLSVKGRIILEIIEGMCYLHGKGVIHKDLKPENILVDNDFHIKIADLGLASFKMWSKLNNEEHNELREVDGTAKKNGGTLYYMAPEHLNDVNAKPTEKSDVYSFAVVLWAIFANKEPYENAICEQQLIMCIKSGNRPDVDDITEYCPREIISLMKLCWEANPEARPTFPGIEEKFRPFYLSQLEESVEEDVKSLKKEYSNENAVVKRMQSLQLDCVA

| SMILES | IC50 [nM] |
| --- | --- |
| CN1C(=O)[C@@H](NC(=O)c2nn(Cc3ccccc3)cc2F)COc2ccccc21 [Example 64, (S)-1-benzyl-4-fluoro-N-(5-methyl-4-oxo-2,3,4,5-tetrahydrobenzo[b][1,4]oxazepin-3-yl)-1H-pyrazole-3-carboxamide] | 0.1 to 1000 |
| CN1C(=O)[C@@H](NC(=O)c2nnc(Cc3ccccc3)[nH]2)[C@@H]2C[C@@H]2c2ccccc21 [Example 67A, 5-benzyl-N-((1aR,2S,8bS)-4-methyl-3-oxo-1,1a,2,3,4,8b-hexahydrobenzo[b]cyclopropa[d]azepin-2-yl)-4H-1,2,4-triazole-3-carboxamide] | 0.1 to 1000 |
| CN1C(=O)[C@H](NC(=O)c2nnc(Cc3ccccc3)[nH]2)[C@H]2C[C@H]2c2ccccc21 [Example 67B, 5-benzyl-N-((1aS,2R,8bR)-4-methyl-3-oxo-1,1a,2,3,4,8b-hexahydrobenzo[b]cyclopropa[d]azepin-2-yl)-4H-1,2,4-triazole-3-carboxamide] | > 3000 |
| O=C(N[C@H]1COc2ccccc2-n2ccnc21)c1nnc(Cc2ccccc2)[nH]1 [Example 68A, (R)-5-benzyl-N-(4,5-dihydrobenzo[b]imidazo[1,2-d][1,4]oxazepin-4-yl)-4H-1,2,4-triazole-3-carboxamide] | 0.1 to 1000 |
| O=C(N[C@@H]1COc2ccccc2-n2ccnc21)c1nnc(Cc2ccccc2)[nH]1 [Example 68B, (S)-5-benzyl-N-(4,5-dihydrobenzo[b]imidazo[1,2-d][1,4]oxazepin-4-yl)-4H-1,2,4-triazole-3-carboxamide] | > 3000 |
| O=C(N[C@H]1CCc2ccccc2-n2cnnc21)c1nnc(Cc2ccccc2)[nH]1 [Example 69A, (S)-5-benzyl-N-(5,6-dihydro-4H-benzo[f][1,2,4]triazolo[4,3-a]azepin-4-yl)-4H-1,2,4-triazole-3-carboxamide] | 0.1 to 1000 |
| O=C(N[C@@H]1CCc2ccccc2-n2cnnc21)c1nnc(Cc2ccccc2)[nH]1 [Example 69B, (R)-5-benzyl-N-(5,6-dihydro-4H-benzo[f][1,2,4]triazolo[4,3-a]azepin-4-yl)-4H-1,2,4-triazole-3-carboxamide] | > 3000 |
| O=C(N[C@H]1COc2ccccc2-n2ccnc21)c1cc(Cc2ccccc2)on1 [Example 70A, (R)-5-benzyl-N-(4,5-dihydrobenzo[b]imidazo[1,2-d][1,4]oxazepin-4-yl)isoxazole-3-carboxamide] | 0.1 to 1000 |
| O=C(N[C@@H]1COc2ccccc2-n2ccnc21)c1cc(Cc2ccccc2)on1 [Example 70B, (S)-5-benzyl-N-(4,5-dihydrobenzo[b]imidazo[1,2-d][1,4]oxazepin-4-yl)isoxazole-3-carboxamide] | > 3000 |
| O=C(N[C@H]1CCc2ccccc2-n2cnnc21)c1cc(Cc2ccccc2)on1 [Example 71A, (S)-5-benzyl-N-(5,6-dihydro-4H-benzo[f][1,2,4]triazolo[4,3-a]azepin-4-yl)isoxazole-3-carboxamide] | 0.1 to 1000 |
| O=C(N[C@@H]1CCc2ccccc2-n2cnnc21)c1cc(Cc2ccccc2)on1 [Example 71B, (R)-5-benzyl-N-(5,6-dihydro-4H-benzo[f][1,2,4]triazolo[4,3-a]azepin-4-yl)isoxazole-3-carboxamide] | > 3000 |
| CN1C(=O)[C@@H](NC(=O)c2cc(C3(c4ccccc4)CC3)[nH]n2)COc2ccccc21 [Example 72, (S)—N-(5-methyl-4-oxo-2,3,4,5-tetrahydrobenzo[b][1,4]oxazepin-3-yl)-5-(1-phenylcyclopropyl)-1H-pyrazole-3-carboxamide] | 0.1 to 1000 |
| CN1C(=O)[C@@H](NC(=O)c2cc(C3(c4ccccc4)CC3)[nH]n2)COc2cccnc21 [Example 73, (S)—N-(5-methyl-4-oxo-2,3,4,5-tetrahydropyrido[3,2-b][1,4]oxazepin-3-yl)-5-(1-phenylcyclopropyl)-1H-pyrazole-3-carboxamide] | 0.1 to 1000 |
| CN1C(=O)[C@@H](NC(=O)c2nn(Cc3ccccn3)cc2F)COc2cccnc21 [Example 74, (S)-4-fluoro-N-(5-methyl-4-oxo-2,3,4,5-tetrahydropyrido[3,2-b][1,4]oxazepin-3-yl)-1-(pyridin-2-ylmethyl)-1H-pyrazole-3-carboxamide] | 0.1 to 1000 |
